Assay results reported in publication PMC7614683, “A small molecule PI3Kα activator for cardioprotection and neuroregeneration” (Nature, 2023).
Where “and” joins values, the source holds several entries; their conditions need not be identical. Equal entries are not always repeated.

Test system: isolated rat hearts
Test: Langendorff ex vivo perfused rat heart model of ischaemia reperfusion injury
Conditions: 1938 5 μM or insulin 1 μM; Fig 5d, single hearts
Method: The Langendorff ex vivo perfused rat heart was used as an experimental model of IRI[79]. The animal experiments were conducted within the terms of the UK Animals (Scientific Procedures) Act 1986, under Project Licence number PPL 70/8556 (Protection of the Ischaemic and Reperfused Myocardium). All procedures conform to the guidelines from Directive 2010/63/EU of the European Parliament on the protection of animals used for scientific purposes. Male Sprague–Dawley rats were bred at a central animal unit in University College London and used at a weight of 250–350 g, and randomly assigned to experimental groups. Rats were anaesthetised by intraperitoneal injection of sodium pentobarbitone (60 mg/kg) (Animalcare, York, UK). […] Analysis of infarct size (IS) as a proportion of area at risk (AAR) was calculated via planimetry using imageJ software (version 1.45, National Institutes of Health, USA).
Alternatively, after 15 min reperfusion, perfusion was stopped and hearts were freeze-clamped in liquid nitrogen and frozen at -80°C. […] Protein content was determined by bicinchoninic acid (BCA) assay (Sigma-Aldrich, Gillingham, UK). […] The next day, membranes were probed with IRDye fluorescence-tagged secondary antibodies (#926-32211 and #926-68020; LI-COR Biosciences, Ltd. UK) and imaged and quantified using the Odyssey imaging system (Image Studio Lite Ver 5.2; LI-COR Biosciences, Cambridge, UK).

## insulin: insulin, canonical activator of PI3Kα, used as positive control
  Western blot pAkt in langendorff: 3.259 and 3.657
